Values quoted from earlier work, collected in PubChem BioAssay AID1259409 (Chemical Carcinogenesis Research Information System (CCRIS), 2018).

Test system: rodent chemically induced tumor inhibition, incidence and multiplicity
Experiment: CCRIS tumor inhibitor studies
Settings: Dose [Inhibitor]: 0

Structure (SMILES) | tumour outcome (control, treated, inhibition, significance) (Carcinogen: 7,12-DIMETHYLBENZ[A]ANTHRACENE, 57-97-6, 0.01% IN DIET BEGINNING 3 WK POST CARCINOGEN DOSE AND CONTINUING FOR 6 WK (STUDY DURATION: 9 WK), Route [Inhibitor]: ORAL, Species: MOUSE, Strain/Sex: SWISS/FEMALE, Target Tissue: Type of Lesion: LUNG: ADENOMA, Dose [Carcinogen]: 40 UG ONCE ADMINISTERED TO NEWBORN MICE, Promoter: NONE USED) | tumour outcome (control, treated, inhibition, significance) (Carcinogen: 7,12-DIMETHYLBENZ[A]ANTHRACENE, 57-97-6, 0.01% IN DIET BEGINNING 3 WK POST CARCINOGEN DOSE AND CONTINUING FOR 6 WK (STUDY DURATION: 9 WK), Route [Inhibitor]: ORAL, Species: MOUSE, Strain/Sex: SWISS/MALE, Target Tissue: Type of Lesion: LUNG: ADENOMA, Dose [Carcinogen]: 40 UG ONCE ADMINISTERED TO NEWBORN MICE, Promoter: NONE USED) | tumour outcome (control, treated, inhibition, significance) (Carcinogen: AZOXYMETHANE (25843-45-2), 500 PPM IN DIET FOR 4 WK, BEGINNING 1 WK BEFORE THE FIRST CARCINOGEN DOSE (STUDY DURATION: 38 WK), Route [Inhibitor]: ORAL, Species: RAT, Strain/Sex: F344/MALE, Target Tissue: Type of Lesion: LARGE INTESTINE: ADENOCARCINOMA, Dose [Carcinogen]: 15 MG/KG BW 1 INJECTION/WK FOR 3 WK, Promoter: NONE USED) | tumour outcome (control, treated, inhibition, significance) (Carcinogen: AZOXYMETHANE (25843-45-2), 500 PPM IN DIET FOR 4 WK, BEGINNING 1 WK BEFORE THE FIRST CARCINOGEN DOSE (STUDY DURATION: 38 WK), Route [Inhibitor]: ORAL, Species: RAT, Strain/Sex: F344/MALE, Target Tissue: Type of Lesion: LARGE INTESTINE: ADENOMA, Dose [Carcinogen]: 15 MG/KG BW 1 INJECTIONS/WK FOR 3 WK, Promoter: NONE USED) | tumour outcome (control, treated, inhibition, significance) (Carcinogen: AZOXYMETHANE (25843-45-2), 500 PPM IN DIET FOR 4 WK, BEGINNING 1 WK BEFORE THE FIRST CARCINOGEN DOSE (STUDY DURATION: 38 WK), Route [Inhibitor]: ORAL, Species: RAT, Strain/Sex: F344/MALE, Target Tissue: Type of Lesion: SMALL INTESTINE: ADENOCARCINOMA, Dose [Carcinogen]: 15 MG/KG BW 1 INJECTION/WK FOR 3 WK, Promoter: NONE USED) | tumour outcome (control, treated, inhibition, significance) (Carcinogen: AZOXYMETHANE (25843-45-2), 500 PPM IN DIET FOR 4 WK, BEGINNING 1 WK BEFORE THE FIRST CARCINOGEN DOSE (STUDY DURATION: 38 WK), Route [Inhibitor]: ORAL, Species: RAT, Strain/Sex: F344/MALE, Target Tissue: Type of Lesion: SMALL INTESTINE: ADENOMA, Dose [Carcinogen]: 15 MG/KG BW 1 INJECTION/WK FOR 3 WK, Promoter: NONE USED) | tumour outcome (control, treated, inhibition, significance) (Carcinogen: AZOXYMETHANE (25843-45-2), 500 PPM IN DIET FOR 34 WK, BEGINNING 1 WK AFTER THE LAST CARCINOGEN DOSE (STUDY DURATION: 38 WK), Route [Inhibitor]: ORAL, Species: RAT, Strain/Sex: F344/MALE, Target Tissue: Type of Lesion: LARGE INTESTINE: ADENOCARCINOMA, Dose [Carcinogen]: 15 MG/KG BW 1 INJECTION/WK FOR 3 WK, Promoter: NONE USED) | tumour outcome (control, treated, inhibition, significance) (Carcinogen: AZOXYMETHANE (25843-45-2), 500 PPM IN DIET FOR 34 WK, BEGINNING 1 WK AFTER THE LAST CARCINOGEN DOSE (STUDY DURATION: 38 WK), Route [Inhibitor]: ORAL, Species: RAT, Strain/Sex: F344/MALE, Target Tissue: Type of Lesion: LARGE INTESTINE: ADENOMA, Dose [Carcinogen]: 15 MG/KG BW 1 INJECTION/WK FOR 3 WK, Promoter: NONE USED) | tumour outcome (control, treated, inhibition, significance) (Carcinogen: AZOXYMETHANE (25843-45-2), 500 PPM IN DIET FOR 34 WK, BEGINNING 1 WK AFTER THE LAST CARCINOGEN DOSE (STUDY DURATION: 38 WK), Route [Inhibitor]: ORAL, Species: RAT, Strain/Sex: F344/MALE, Target Tissue: Type of Lesion: SMALL INTESTINE: ADENOCARCINOMA, Dose [Carcinogen]: 15 MG/KG BW 1 INJECTION/WK FOR 3 WK, Promoter: NONE USED) | tumour outcome (control, treated, inhibition, significance) (Carcinogen: AZOXYMETHANE (25843-45-2), 500 PPM IN DIET FOR 34 WK, BEGINNING 1 WK AFTER THE LAST CARCINOGEN DOSE (STUDY DURATION: 38 WK), Route [Inhibitor]: ORAL, Species: RAT, Strain/Sex: F344/MALE, Target Tissue: Type of Lesion: SMALL INTESTINE: ADENOMA, Dose [Carcinogen]: 15 MG/KG BW 1 INJECTION/WK FOR 3 WK, Promoter: NONE USED) | tumour outcome (control, treated, inhibition, significance) (Carcinogen: BENZO[A]PYRENE, 50-32-8, 0.01% IN DIET BEGINNING 3 WK POST CARCINOGEN DOSE AND CONTINUING FOR 6 WK (STUDY DURATION: 9 WK), Route [Inhibitor]: ORAL, Species: MOUSE, Strain/Sex: SWISS/FEMALE, Target Tissue: Type of Lesion: LUNG: ADENOMA, Dose [Carcinogen]: 1 MG ONCE ADMINISTERED TO NEWBORN MICE, Promoter: NONE USED) | tumour outcome (control, treated, inhibition, significance) (Carcinogen: BENZO[A]PYRENE, 50-32-8, 0.01% IN DIET BEGINNING 3 WK POST CARCINOGEN DOSE AND CONTINUING FOR 6 WK (STUDY DURATION: 9 WK), Route [Inhibitor]: ORAL, Species: MOUSE, Strain/Sex: SWISS/MALE, Target Tissue: Type of Lesion: LUNG: ADENOMA, Dose [Carcinogen]: 1 MG ONCE ADMINISTERED TO NEWBORN MICE, Promoter: NONE USED) | tumour outcome (control, treated, inhibition, significance) (Carcinogen: BENZO[A]PYRENE, 50-32-8, 1 UMOL IN 0.2 ML ACETONE APPLIED 24 AND 1 HR PRIOR TO CARCINOGEN DOSE (STUDY DURATION: 22 WK), Route [Inhibitor]: DERMAL, Species: MOUSE, Strain/Sex: CD-1/FEMALE, Target Tissue: Type of Lesion: SKIN: TUMOR, Dose [Carcinogen]: 0.3 UMOL IN 0.2 ML ACETONE ONCE, Promoter: 12-O-TETRADECANOYLPHORBOL 13-ACETATE, 16561-29-8) | tumour outcome (control, treated, inhibition, significance) (Carcinogen: N-METHYLNITROSOUREA, 684-93-5, DIETHYLNITROSAMINE, 55-18-5, N,N-DIBUTYLNITROS- AMINE, 924-16-3, Carcinogen: N-METHYLNITROSOUREA, 684-93-5, DIETHYLNITROSAMINE, 55-18-5, N,N-DIBUTYLNITROS- AMINE, 924-16-3, 0.01% IN DIET FOR 16 WK BEGINNING POST LAST CARCINOGEN DOSE (STUDY DURATION: 20 WK), Route [Inhibitor]: ORAL, Species: RAT, Strain/Sex: F344/MALE, Target Tissue: Type of Lesion: LUNG: ADENOMA, Dose [Carcinogen]: 100 MG/KG DIETHYLNITROSAMINE INTRAPERITONEAL ON D 1 THEN 200 MG/KG N-METHYLNITROSOUREA ON D 2, 5, 8, 11, AND 0.05% N,N-D) | tumour outcome (control, treated, inhibition, significance) (Carcinogen: VINYL CARBAMATE, 15805-73-9, 2.5 UMOL IN 0.2 ML ACETONE ONCE 10 MIN PRIOR TO CARCINOGEN DOSE (STUDY DURATION: 22 WK), Route [Inhibitor]: DERMAL, Species: MOUSE, Strain/Sex: ICR/FEMALE, Target Tissue: Type of Lesion: SKIN: PAPILLOMA, Dose [Carcinogen]: 5.8 UMOL IN 0.2 ML ACETONE ONCE, Promoter: 12-O-TETRADECANOYLPHORBOL 13-ACETATE, 16561-29-8) | tumour outcome (control, treated, inhibition, significance) (Carcinogen: NONE, 0.1 MG/KG BW/D FOR 104 WK (STUDY DURATION: 104 WK), Route [Inhibitor]: NOT SPECIFIED, Species: RAT, Strain/Sex: SPRAGUE-DAWLEY/FEMALE, Target Tissue: Type of Lesion: REPRODUCTIVE TRACT (DISTAL): BENIGN GRANULAR CELL TUMOR, Promoter: NONE) | tumour outcome (control, treated, inhibition, significance) (Carcinogen: NONE, 1 MG/KG BW/D FOR 104 WK (STUDY DURATION: 104 WK), Route [Inhibitor]: NOT SPECIFIED, Species: RAT, Strain/Sex: SPRAGUE-DAWLEY/FEMALE, Target Tissue: Type of Lesion: REPRODUCTIVE TRACT (DISTAL): BENIGN GRANULAR CELL TUMOR, Promoter: NONE) | tumour outcome (control, treated, inhibition, significance) (Carcinogen: NONE, 10 MG/KG BW/D FOR 104 WK (STUDY DURATION: 104 WK), Route [Inhibitor]: NOT SPECIFIED, Species: RAT, Strain/Sex: SPRAGUE-DAWLEY/FEMALE, Target Tissue: Type of Lesion: REPRODUCTIVE TRACT (DISTAL): BENIGN GRANULAR CELL TUMOR, Promoter: NONE)
COc1cc(CNC(=O)CCCC/C=C/C(C)C)ccc1O | 17/17 (100%), 20/22 (91%), 9%, not calculated | 10/10 (100%), 23/24 (96%), 4%, not calculated | 9/15 (60%), 4/17 (24%), 60%, p = 0.0407 | 4/15 (27%), 1/17 (6%), 78%, not significant | 4/15 (27%), 3/17 (18%), 33%, not significant | 1/15 (7%), 0/17 (0%), 100%, not significant | 9/15 (60%), 6/14 (43%), 28%, not significant | 4/15 (27%), 2/14 (14%), 48%, not significant | 4/15 (27%), 3/14 (21%), 22%, not significant | 1/15 (7%), 0/14 (0%), 100%, not significant | 8/34 (24%), 4/30 (13%), 46%, p<0.05 | 7/35 (20%), 3/34 (9%), 55%, p<0.01 | 84%, 68%, 19%, not significant | 9/16 (56%), 2/15 (13%), 77%, p<0.02 | 70%, 53%, 24%, not significant |  |  | 
N#Cc1ccc(C(c2ccc(C#N)cc2)n2cncn2)cc1 |  |  |  |  |  |  |  |  |  |  |  |  |  |  |  | 7/60 (12%), 0/60 (0%), 100%, not calculated | 7/60 (12%), 0/60 (0%), 100%, not calculated | 7/60 (12%), 0/60 (0%), 100%, not calculated
